Laboratory results: the NIST ThermoML archive (doi:10.1021/acs.jced.6b00269)

Conditions: for viscosity / mass density: 101.33 kPa, Liquid; for viscosity: Cone and plate viscometry; for mass density: Vibrating tube method; for Glass transition temperature: DSC; for Normal melting temperature: Crystal, DTA

CCCCCCCCCCCCCC[P+](CCCCCC)(CCCCCC)CCCCCC.Clc1nc[n-]c1Cl [trihexyl(tetradecyl)phosphonium 4,5-dichloroimidazolide]
Conditions	Glass transition temperature [°C]	mass density [kg/m3]	viscosity [mPa·s]
–	-64	–	–
278.15 K	–	–	4040
283.15 K	–	974.1	2580
288.15 K	–	970.8	1680
293.15 K	–	967.5	1140
295.15 K	–	966.2	–
298.15 K	–	964.4	789
303.15 K	–	961.3	566
308.15 K	–	958.3	415
313.15 K	–	955.2	308
318.15 K	–	952.2	234
323.15 K	–	949.1	182
328.15 K	–	946.2	144
333.15 K	–	943.2	116
338.15 K	–	940.2	–
343.15 K	–	937.2	–
348.15 K	–	934.2	–
353.15 K	–	931.3	–

CC[P+](CC)(CC)COCCOC.O=[N+]([O-])c1cn[n-]c1
Conditions	Glass transition temperature [°C]	Normal melting temperature [°C]	mass density [kg/m3]	viscosity [mPa·s]
–	-76	-15	–	–
278.15 K	–	–	–	309
283.15 K	–	–	1149.2	216
288.15 K	–	–	1145.8	156
293.15 K	–	–	1142.4	116
295.15 K	–	–	1141	–
298.15 K	–	–	1139	88
303.15 K	–	–	1135.6	69
308.15 K	–	–	1132.2	55
313.15 K	–	–	1128.9	–
318.15 K	–	–	1125.5	–
323.15 K	–	–	1122.2	–
328.15 K	–	–	1118.9	–
333.15 K	–	–	1115.6	–
338.15 K	–	–	1112.3	–
343.15 K	–	–	1109.1	–
348.15 K	–	–	1105.8	–
353.15 K	–	–	1102.6	–

CCCC[S+]1CCCC1.O=S(=O)([N-]S(=O)(=O)C(F)(F)F)C(F)(F)F
Conditions	Glass transition temperature [°C]	mass density [kg/m3]	viscosity [mPa·s]
–	-83	–	–
278.15 K	–	–	284
283.15 K	–	1469	206
288.15 K	–	1464.3	153
293.15 K	–	1459.7	117
295.15 K	–	1457.8	–
298.15 K	–	1455	91
303.15 K	–	1450.4	73
308.15 K	–	1445.7	59
313.15 K	–	1441.1	–
318.15 K	–	1436.5	–
323.15 K	–	1431.9	–
328.15 K	–	1427.3	–
333.15 K	–	1422.7	–
338.15 K	–	1418.2	–
343.15 K	–	1413.6	–
348.15 K	–	1409.1	–
353.15 K	–	1404.6	–

Cc1n(C2CCCC2)cc[n+]1C.O=[N+]([O-])c1cn[n-]c1 [1-cyclopentyl-2,3-dimethylimidazolium 4-nitropyrazolide]
Conditions	Normal melting temperature [°C]
–	92

CCCCCC[n+]1ccn(C)c1.O=S(=O)([N-]S(=O)(=O)C(F)(F)F)C(F)(F)F
Conditions	mass density [kg/m3]	viscosity [mPa·s]
278.15 K	–	203
283.15 K	1386.6	150
288.15 K	1382.1	113
293.15 K	1377.5	87
295.15 K	1375.7	–
298.15 K	1372.9	68
303.15 K	1368.4	55
308.15 K	1363.8	–
313.15 K	1359.3	–
318.15 K	1354.8	–
323.15 K	1350.3	–
328.15 K	1345.8	–
333.15 K	1341.3	–
338.15 K	1336.8	–
343.15 K	1332.4	–
348.15 K	1327.9	–
353.15 K	1323.5	–

CCCCCCCC[P+](CC)(CC)CC.O=[N+]([O-])c1cn[n-]c1 [triethyloctylphosphonium 4-nitropyrazolide]
Conditions	Glass transition temperature [°C]	Normal melting temperature [°C]	mass density [kg/m3]	viscosity [mPa·s]
–	-72	5	–	–
278.15 K	–	–	–	1100
283.15 K	–	–	1040.1	716
288.15 K	–	–	1037	480
293.15 K	–	–	1033.9	333
295.15 K	–	–	1032.7	–
298.15 K	–	–	1030.9	238
303.15 K	–	–	1027.9	175
308.15 K	–	–	1024.9	133
313.15 K	–	–	1022	103
318.15 K	–	–	1019	81
323.15 K	–	–	1016.1	65
328.15 K	–	–	1013.2	53
333.15 K	–	–	1010.2	–
338.15 K	–	–	1007.3	–
343.15 K	–	–	1004.4	–
348.15 K	–	–	1001.5	–
353.15 K	–	–	998.6	–

CCCCCCCCSC(N(C)C)=[N+](C)C.O=S(=O)([N-]S(=O)(=O)C(F)(F)F)C(F)(F)F
Conditions	Glass transition temperature [°C]	mass density [kg/m3]	viscosity [mPa·s]
–	-82	–	–
278.15 K	–	–	356
283.15 K	–	1309.6	254
288.15 K	–	1305.2	186
293.15 K	–	1301	140
295.15 K	–	1299.3	–
298.15 K	–	1296.7	108
303.15 K	–	1292.4	85
308.15 K	–	1288.2	69
313.15 K	–	1284	56
318.15 K	–	1279.7	–
323.15 K	–	1275.5	–
328.15 K	–	1271.3	–
333.15 K	–	1267.1	–
338.15 K	–	1262.9	–
343.15 K	–	1258.7	–
348.15 K	–	1254.6	–
353.15 K	–	1250.4	–

CCCCCCCC[P+](CC)(CC)CC.O=S(=O)([N-]S(=O)(=O)C(F)(F)F)C(F)(F)F [triethyloctylphosphonium bis(trifluoromethylsulfonyl)imide]
Conditions	mass density [kg/m3]	viscosity [mPa·s]
278.15 K	–	379
283.15 K	1256.3	268
288.15 K	1252.2	194
293.15 K	1248.1	145
295.15 K	1246.6	–
298.15 K	1244.2	111
303.15 K	1240.2	87
308.15 K	1236.2	73
313.15 K	1232.2	57
318.15 K	1228.2	–
323.15 K	1224.2	–
328.15 K	1220.2	–
333.15 K	1216.3	–
338.15 K	1212.3	–
343.15 K	1208.4	–
348.15 K	1204.4	–
353.15 K	1200.5	–

CC[P+](CC)(CC)COCCOC.Cc1ncc([N+](=O)[O-])[n-]1
Conditions	Glass transition temperature [°C]	viscosity [mPa·s]
–	-75	–
278.15 K	–	567
283.15 K	–	381
288.15 K	–	264
293.15 K	–	189
298.15 K	–	140
303.15 K	–	106
308.15 K	–	83
313.15 K	–	65
318.15 K	–	53

CCCC[n+]1cccn1C.O=S(=O)([N-]S(=O)(=O)C(F)(F)F)C(F)(F)F [1-butyl-2-methylpyrazolium bis(trifluoromethylsulfonyl)imide]
Conditions	Glass transition temperature [°C]	mass density [kg/m3]	viscosity [mPa·s]
–	-82	–	–
278.15 K	–	–	214
283.15 K	–	1465.4	155
288.15 K	–	1460.7	116
293.15 K	–	1456	88
295.15 K	–	1454.06	–
298.15 K	–	1451.2	70
303.15 K	–	1446.5	55
308.15 K	–	1441.8	–
313.15 K	–	1437.1	–
318.15 K	–	1432.4	–
323.15 K	–	1427.7	–
328.15 K	–	1423	–
333.15 K	–	1418.4	–
338.15 K	–	1413.8	–
343.15 K	–	1409.1	–
348.15 K	–	1404.6	–
353.15 K	–	1400	–
